A word on the IC50: it is the point on the concentration scale where inhibition reaches its midpoint.

For assay [1], the target named is T1, PDE5A1 (Homo sapiens, UniProt O76074).
T1 construct: they are full-length with N-terminal GST tag; GST (N); purchased BPS Biosciences 60050; host or cells: baculovirus infected Sf9 cells
Description: PDE enzyme activity assay (HTRF cGMP), PDE5A. The class given is biochemical. The following applies: recombinant enzyme; read-out: PDE5A1 inhibition (IC50). In general terms: In TR-FRET formats the signal depends on donor and acceptor labels being close together.

Assay [2] has as its system acetylated histone 3 at Lys9 (AcH3K9). Briefly: HDAC activity using SHSY-5Y cell line (Western blot, histone 3 acetylation). Format: cell-based, human. Also noted: key: basal x1 means no increment (+); basal x1.4≤(++)<basal x2; basal x2≤(+++)<basal x3; basal x3≤(++++); N.E. means No Effect. The following applies: SHSY-5Y cells, 24 hours. As for the experimental part: HDAC inhibition leads to the corresponding functional response, increase in AcH3 level. Therefore, the cellular assay to conclude HDAC activity was assessed by Western blot analysis using specific antibodies against acetylated histone 3 at Lys9 (AcH3K9). Cell cultures were treated at 100 nM, 500 nM, 1 μM and/or 5 μM with compounds of the invention or known PDE inhibitors during 24 hours and, Table 1 (below) describes the functional activity: histone 3 acetylation level (AcH3) vs basal (no treatment).
A human neuroblastoma cell line (SHSY-5Y) was used. Cell line was obtained from ATCC (CRL-2266) and cultured in 35 mm plates (Becton Dickinson, NJ).
The cells were grown to 90% confluence at 37° C. in an atmosphere of 5% CO2 and in Dulbecco's modified Eagle's medium supplemented with Glutamax (Gibco, Invitrogen, CA), 100 units/ml penicillin/streptomycin, 1×MEM nonessential amino acids and 10% fetal bovine serum (Gibco, Invitrogen, CA).
Cells were collected and sonicated in a buffer containing a cold lysis buffer with protease inhibitors (0.2 M NaCl, 0.1 M HEPES (4-(2-hydroxyethyl)-1-piperazineethanesulfonic acid), 10% glycerol, 200 mM NaF, 2 mM Na4P2O7, 5 mM EDTA (ethylenediaminetetraacetic acid), 1 mM EGTA (ethylene glycol tetraacetic acid), 2 mM DTT (dithiothreitol), 0.5 mM PMSF (phenylmethylsulfonyl fluoride), 1 mM Na3VO4 and Complete Protease Inhibitor Cocktail, Roche Diagnostics), centrifuged at 14,000×g 4° C. for 20 min and the supernatant was aliquoted and stored at −80° C. Total protein concentrations were determined using the BioRad Bradford protein assay (BioRad Laboratories).
Protein samples were mixed with Laemmli sample buffer, resolved onto Sodium Dodecyl Sulfate (SDS)-polyacrylamide gels and transferred to nitrocellulose membrane. The membranes were blocked with 5% milk, 0.05% Tween-20 in PBS (Phosphate-Buffered Saline) or TBS (Tris-Buffered Saline) followed by overnight incubation with the following primary antibodies: rabbit polyclonal anti-acetylated Histone 3 (acetyl K9) (Cell Signalling Technology), rabbit polyclonal anti-total Histone 3 (Millipore), in the corresponding buffer. All the antibodies were used at 1:1000 dilution except the mouse monoclonal anti-β-actin which was used at 1:50.000. Following two washes in TBS/Tween20 and one wash in TBS alone, immunolabeled protein bands were detected by using HRP-conjugated anti-rabbit or anti-mouse antibody (Santa Cruz Biotechnology; dilution 1:5.000) following an enhanced chemiluminescence system (ECL, GE Healthcare Bioscience, Buckinghamshire, UK), and autoradiographic exposure to HyperfilmtECL (GE Healthcare Bioscience). Quantity One™ software v.4.6.3 (Bio-Rad) was used for quantification.

Assay [3] deals with T2, PDE9A (Homo sapiens, UniProt O76083).
T2 construct: they are full-length with N-terminal GST tag; GST (N); purchased BPS Biosciences 60090; host or cells: baculovirus infected Sf9 cells
T2 sequence (O76083 1-533 isoform O76083-2): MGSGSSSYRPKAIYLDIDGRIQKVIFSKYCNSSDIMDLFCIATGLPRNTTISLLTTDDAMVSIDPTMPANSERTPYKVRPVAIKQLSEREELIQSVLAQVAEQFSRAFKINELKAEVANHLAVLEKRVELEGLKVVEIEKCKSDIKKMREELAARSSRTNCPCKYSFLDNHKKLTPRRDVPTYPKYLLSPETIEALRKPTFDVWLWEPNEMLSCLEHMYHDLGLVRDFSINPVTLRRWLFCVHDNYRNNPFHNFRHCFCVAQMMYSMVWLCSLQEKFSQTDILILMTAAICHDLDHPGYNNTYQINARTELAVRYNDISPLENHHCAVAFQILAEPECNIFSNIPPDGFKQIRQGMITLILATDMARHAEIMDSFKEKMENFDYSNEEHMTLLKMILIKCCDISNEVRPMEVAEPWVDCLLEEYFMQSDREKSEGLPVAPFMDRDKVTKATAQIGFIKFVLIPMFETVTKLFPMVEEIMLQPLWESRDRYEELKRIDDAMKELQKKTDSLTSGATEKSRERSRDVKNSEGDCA
Briefly: PDE enzyme activity assay (HTRF cGMP), PDE9A. Format: biochemical. The following applies: recombinant enzyme; read-out: PDE9A inhibition (IC50).

Regarding `CCCc1nn(C)c2c(=O)[nH]c(-c3cc(C4CCC(C(=O)Nc5ccccc5N)CC4)ccc3OCC)nc12` (racemic) [Example 1-05, N-(2-aminophenyl)-4-[4-ethoxy-3-(1-methyl-7-oxo-3-propyl-6H-pyrazolo[4,3-d]pyrimidin-5-yl)phenyl]cyclohexanecarboxamide], the 50% inhibitory concentration (IC50) in assay [1] lay within 10 to 1000 nM. Also, the “AcH3: increment in Histone 3 acetylation level vs basal” value (“AcH3: increment … vs basal” below) in assay [2] (compound concentration 1 μM) is recorded as “+++ (basal x2≤(+++)<basal x3)”. `CCCc1nc(C)c2c(=O)[nH]c(-c3cc(CC4CC(C(=O)Nc5ccccc5N)C4)ccc3OCC)nn12` (racemic) [Example 2-04, N-(2-aminophenyl)-3-[[4-ethoxy-3-(5-methyl-4-oxo-7-propyl-3H-imidazo[5,1-f][1,2,4]triazin-2-yl)phenyl]methyl]cyclobutanecarboxamide]: in assay [1], the 50% inhibitory concentration (IC50) is less than 10 nM. The “AcH3: increment … vs basal” value in assay [2] (compound concentration 1 μM) is on record as “++++ (basal x3≤(++++))”. On the same counts, the results for `CCCc1nn(C)c2c(=O)[nH]c(-c3cc(C4CCC(C(=O)Nc5ccccc5N)CC4)ccc3OCC)nc12` (centres unmarked) [Example 1-06, N-(2-aminophenyl)-4-[4-ethoxy-3-(1-methyl-7-oxo-3-propyl-6H-pyrazolo[4,3-d]pyrimidin-5-yl)phenyl]cyclohexanecarboxamide] are 10 to 1000 nM and “+++ (basal x2≤(+++)<basal x3)”.

`CCCc1nc(C)c2c(=O)[nH]c(-c3cc(S(=O)(=O)NC4CCN(c5ncc(C(=O)Nc6ccccc6N)cn5)CC4)ccc3OCC)nn12` [Example 2-03]: the half-maximal inhibitory concentration (IC50) in assay [1] was less than 10 nM. Further, the “AcH3: increment … vs basal” value in assay [2] (compound concentration 1 μM) is listed as “++ (basal x1.4≤(++)<basal x2)”. Regarding `CCCc1nn(C)c2c(=O)[nH]c(-c3cc(CC4CC(C(=O)Nc5ccccc5N)C4)ccc3OCC)nc12` (racemic) [Example 1-04, N-(2-aminophenyl)-3-[[4-ethoxy-3-(1-methyl-7-oxo-3-propyl-6H-pyrazolo[4,3-d]pyrimidin-5-yl)phenyl]methyl]cyclobutanecarboxamide], in assay [1], the IC50 lay in the range of 10 to 1000 nM. The “AcH3: increment … vs basal” value in assay [2] (compound concentration 1 μM) was “++++ (basal x3≤(++++))”. As to `CCCc1nn(C)c2c(=O)[nH]c(-c3cc(Cc4ccc(C(=O)Nc5ccccc5N)s4)ccc3OCC)nc12` [Example 1-08], in assay [1], the IC50 lay within 10 to 1000 nM. Further, the “AcH3: increment … vs basal” value in assay [2] (compound concentration 1 μM) is listed as “++++ (basal x3≤(++++))”. Take `CCCc1nn(C)c2c(=O)[nH]c(-c3cc(S(=O)(=O)NC4CCN(c5ncc(C(=O)Nc6ccccc6N)cn5)CC4)ccc3OCC)nc12` [Example 1-02]: in assay [1], the IC50 lay in the range of 10 to 1000 nM. For the same compound, the “AcH3: increment … vs basal” value in assay [2] (compound concentration 1 μM) is on record as “+++ (basal x2≤(+++)<basal x3)”. `CCCc1nn(C)c2c(=O)[nH]c(-c3cc(CC(=O)Nc4ccccn4)ccc3OCC)nc12` [Example 1-15, 2-[4-ethoxy-3-(1-methyl-7-oxo-3-propyl-6H-pyrazolo[4,3-d]pyrimidin-5-yl)phenyl]-N-(2-pyridyl)acetamide]: the IC50 in assay [1] was in the range of 10 to 1000 nM. Also, in assay [2] (compound concentration 1 μM), the “AcH3: increment … vs basal” value is on record as “++ (basal x1.4≤(++)<basal x2)”. For the compound `CCCc1nn(C)c2c(=O)[nH]c(-c3cc(S(=O)(=O)N4CCN(C)CC4)ccc3OCC)nc12` [Sildenafil, reference compound], the “AcH3: increment … vs basal” value in assay [2] (compound concentration 1 μM) is recorded as “N.E”.

On to `CCCc1nn(C)c2c(=O)[nH]c(-c3cc(Cc4ccc(C(=O)Nc5cc(-c6cccs6)ccc5N)cc4)ccc3OCC)nc12` [Example 1-13, N-[2-amino-5-(2-thienyl)phenyl]-4-[[4-ethoxy-3-(1-methyl-7-oxo-3-propyl-6H-pyrazolo[4,3-d]pyrimidin-5-yl)phenyl]methyl]benzamide], for which the 50% inhibitory concentration (IC50) in assay [1] was in the range of 1000 to 10000 nM. Further, in assay [2] (compound concentration 1 μM), the “AcH3: increment … vs basal” value was “++ (basal x1.4≤(++)<basal x2)”. With `Nc1ccccc1NC(=O)c1cnc(N2CCC(CN3CC(=O)N4C(Cc5c([nH]c6ccccc56)C4c4ccc5c(c4)OCO5)C3=O)CC2)nc1` (racemic) [Example 4-01, N-(2-aminophenyl)-2-(4-((6-(benzo[d][1,3]dioxol-5-yl)-1,4-dioxo-3,4,6,7,12,12a-hexahydropyrazino[1′,2′:1,6]pyrido[3,4-b]indol-2(1H)-yl)methyl)piperidin-1-yl)pyrimidine-5-carboxamide], the IC50 in assay [1] lay in the range of 1000 to 10000 nM. Besides, in assay [2] (compound concentration 5 μM), the “AcH3: increment … vs basal” value is given as “++ (basal x1.4≤(++)<basal x2)”. As for `C[C@@H]1CN(Cc2ccc(C(=O)Nc3ccccc3N)cc2)C[C@H]1c1nc2c(cnn2C2CCCC2)c(=O)[nH]1` (racemic) [Example 3-01, N-(2-aminophenyl)-4-[[(3S,4S)-3-(1-cyclopentyl-4-oxo-5H-pyrazolo[3,4-d]pyrimidin-6-yl)-4-methyl-pyrrolidin-1-yl]methyl] benzamide], the IC50 in assay [3] fell in the range of 10 to 1000 nM. The “AcH3: increment … vs basal” value in assay [2] (compound concentration 1 μM) is on record as “++ (basal x1.4≤(++)<basal x2)”.

In the case of `CCCc1nn(C)c2c(=O)[nH]c(-c3cc(S(=O)(=O)NCc4ccc(C(=O)Nc5ccccc5N)cc4)ccc3OCC)nc12` [Example 1-03], in assay [1], the IC50 was 10 to 1000 nM. In assay [2] (compound concentration 1 μM), the “AcH3: increment … vs basal” value was “++++ (basal x3≤(++++))”. `CCCc1nn(C)c2c(=O)[nH]c(-c3cc(S(=O)(=O)N4CCN(c5ncc(C(=O)Nc6ccccc6N)cn5)CC4)ccc3OCC)nc12` [Example 1-01, N-(2-aminophenyl)-2-[4-[4-ethoxy-3-(1-methyl-7-oxo-3-propyl-6H-pyrazolo[4,3-d]pyrimidin-5-yl)phenyl]sulfonylpiperazin-1-yl]pyrimidine-5-carboxamide]: the IC50 in assay [1] lay in the range of 10 to 1000 nM. The “AcH3: increment … vs basal” value in assay [2] (compound concentration 1 μM) was “+++ (basal x2≤(+++)<basal x3)”. As for `CCCc1nn(C)c2c(=O)[nH]c(-c3cc(Cc4ccc(C(=O)N5CCNC(=O)C5)cc4)ccc3OCC)nc12` [Example 1-19], the IC50 in assay [1] lay in the range of 10 to 1000 nM. Also, in assay [2] (compound concentration 1 μM), the “AcH3: increment … vs basal” value is on record as “++ (basal x1.4≤(++)<basal x2)”. With `CCCc1nc(C)c2c(=O)[nH]c(-c3cc(Cc4ccc(C(=O)Nc5cscc5N)cc4)ccc3OCC)nn12` [Example 2-07, N-(4-amino-3-thienyl)-4-[[4-ethoxy-3-(5-methyl-4-oxo-7-propyl-3H-imidazo[5,1-f][1,2,4]triazin-2-yl)phenyl]methyl]benzamide], the half-inhibitory concentration (IC50) in assay [1] lay within 10 to 1000 nM. In addition, in assay [2] (compound concentration 1 μM), the “AcH3: increment … vs basal” value was “++ (basal x1.4≤(++)<basal x2)”. Turning to `CCCc1nn(C)c2c(=O)[nH]c(-c3cc(Cc4ccc(C(=O)Nc5cscc5N)cc4)ccc3OCC)nc12` [Example 1-20], the IC50 in assay [1] is 1000 to 10000 nM. Further, the “AcH3: increment … vs basal” value in assay [2] (compound concentration 1 μM) is recorded as “++ (basal x1.4≤(++)<basal x2)”. In the case of `CCCc1nc(C)c2c(=O)[nH]c(-c3cc(S(=O)(=O)N4CCN(c5ncc(C(=O)Nc6ccccc6N)cn5)CC4)ccc3OCC)nn12` [Example 2-02, N-(2-aminophenyl)-2-[4-[4-ethoxy-3-(5-methyl-4-oxo-7-propyl-3H-imidazo[5,1-f][1,2,4]triazin-2-yl)phenyl]sulfonylpiperazin-1-yl]pyrimidine-5-carboxamide], the IC50 in assay [1] is less than 10 nM. Besides, the “AcH3: increment … vs basal” value in assay [2] (compound concentration 1 μM) was “++++ (basal x3≤(++++))”.

Source of the values: patent publication US9969744B2, “Compounds for use in cognition improvement” (FUNDACIÓN PARA LA INVESTIGACIÓN MÉDICA APLICADA, priority 2014, dated 2018).
